Our source for the Bliss excess values is the supplement of paper PMC11061612.

Molecules are shown by their SMILES.

Assay in all cases: Bliss excess, mean over the matrix (fraction); higher = more synergy
The subject of test [1] is CAL-54 (Kidney Carcinoma). Put shortly: (§1)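 Cell lines in DMEM/F12 or RPMI with 10% FBS were plated in 1536-well plates, held 24 hours at 37°C, 5% CO2, then given two-drug dose matrices for 72 hours (DMSO typically 0.2%). Viability was read by CellTiter-Glo 2.0 luminescence and scaled as inhibition from 0 (vehicle wells) to 1 (blank wells). Combination Emax is the second-highest inhibition in the matrix; Bliss excess is observed combination effect minus expected EA + EB − EA·EB, EA and EB being single-agent effects.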

Test [2] relates to CAPAN-1 (Pancreatic Carcinoma). Put shortly:
as §1

In test [3] the test system is EN (Endometrial Carcinoma). Summed up: as §1
The test system of test [4] is HARA (Squamous Cell Lung Carcinoma). Put shortly: as §1
The test system of test [5] is HDLM-2 (Hodgkin's Lymphoma). Summed up:
as §1

For test [6], the system named is HO-1-u-1 (Oral Cavity Carcinoma). Put shortly:
as §1

In test [7] the test system is Hs-633T (Other Solid Carcinomas). Summed up: as §1
The subject of test [8] is LoVo (Colorectal Carcinoma). Put shortly:
as §1

Test [9] has as its system MDA-MB-468 (Breast Carcinoma). Put shortly:
as §1

The next test has as its system NB14 (Neuroblastoma). Summed up: as §1
For the next test, the system named is NCI-H2461 (Mesothelioma). Summed up: as §1
Another test deals with NCI-H28 (Mesothelioma). Summed up:
as §1

Test [10] relates to OC-314 (Ovarian Carcinoma). Put shortly: as §1
Test [11] deals with PCI-30 (Head and Neck Carcinoma). Put shortly: as §1
In test [12] the test system is RKO (Colorectal Carcinoma). Put shortly:
as §1

In test [13] the test system is RPMI-6666 (Non-Cancerous). Put shortly: as §1
The subject of another test is SH-4 (Melanoma). Summed up:
as §1

Test [14] concerns SK-OV-3 (Ovarian Carcinoma). Put shortly:
as §1

In test [15] the test system is SU-DHL-6 (B-Cell Non-Hodgkin's Lymphoma). Summed up: as §1
Test [16] relates to SW1116 (Colorectal Carcinoma). Put shortly: as §1

With `C[C@@H](Nc1cc(F)cc(F)c1)c1cc(C(=O)N(C)C)cc2c(=O)cc(N3CCOCC3)oc12` [AZD8186] + CC(=O)c1c(C)c2cnc(Nc3ccc(N4CCNCC4)cn3)nc2n(C2CCCC2)c1=O [Palbociclib] (first compound max 10 µM, 7x7, partner max 10 µM), the Bliss excess was 0.0039 in test [1]; -0.0559 in test [2]; -0.0262 in [3]; 0.0281 in [4]; 0.0121 in [5]; 0.0138 in test [6]. Moreover, the Bliss excess in test [7] was 0.05; in [8], -0.0314; in test [9], -0.022; in the test on NB14 (Neuroblastoma) it was 0.075; in the test on NCI-H2461 (Mesothelioma), -0.0113; in the test with NCI-H28 (Mesothelioma), -0.0333. Also, the Bliss excess was 0.0774 in [10]; 0.0121 in test [11]; 0.0559 in test [12]; -0.0073 in test [13]; -0.0303 with SH-4 (Melanoma); -0.0454 in test [14]. Further, the Bliss excess is 0.0418 in [15] and -0.0352 in test [16].
`CN(CCO)CC[C@H](CSc1ccccc1)Nc1ccc(S(=O)(=O)NC(=O)c2ccc(N3CCC([C@@H](O)c4ccccc4-c4ccc(Cl)cc4)CC3)cc2)cc1S(=O)(=O)C(F)(F)F` [AZD4320] + C[C@@H](Nc1cc(F)cc(F)c1)c1cc(C(=O)N(C)C)cc2c(=O)cc(N3CCOCC3)oc12 [AZD8186] (first compound max 1 µM, 7x7, partner max 3 µM): the Bliss excess in [1] was 0.0533; in test [2], -0.0107; in test [3], -0.0377; in [4] it was 0.0233; in test [5] it was 0.0434; in [6], -0.0242. The Bliss excess in [7] is 0.0082; in test [8] it was 0.0355; in test [9], 0.0195; in the test on NB14 (Neuroblastoma) it was 0.0025; in the test with NCI-H2461 (Mesothelioma) it was -0.0052; with NCI-H28 (Mesothelioma), 0.0474. Besides, the Bliss excess in test [10] is 0.0075; in [11], -0.0503; in test [12], -0.0164; in test [13], 0.0298; in the test with SH-4 (Melanoma) it was -0.0042; in test [14], 0.0008. Moreover, the figures for the Bliss excess in [15] and in [16] were 0.0068 and 0.0353, respectively.
Regarding `CN(CCO)CC[C@H](CSc1ccccc1)Nc1ccc(S(=O)(=O)NC(=O)c2ccc(N3CCC([C@@H](O)c4ccccc4-c4ccc(Cl)cc4)CC3)cc2)cc1S(=O)(=O)C(F)(F)F` [AZD4320] + Nc1ccn([C@@H]2O[C@H](CO)[C@@H](O)C2(F)F)c(=O)n1 [Gemcitabine] (first compound max 1 µM, 7x7, partner max 0.3 µM), the Bliss excess was -0.0034 in test [1]; 0.0166 in test [2]; -0.0382 in test [3]; -0.0498 in [4]; 0.0204 in test [5]; 0.0383 in test [6]. In addition, the Bliss excess was 0.0434 in test [7]; -0.0476 in [8]; -0.0034 in test [9]; 0.0314 with NB14 (Neuroblastoma); 0.0285 with NCI-H2461 (Mesothelioma); 0.0018 with NCI-H28 (Mesothelioma). Further, the Bliss excess in [10] was 0.0434; in test [11], -0.0272; in [12], -0.0195; in [13] it was -0.0051; in the test with SH-4 (Melanoma), 0.0224; in test [14], -0.0695. Further, the results for the Bliss excess in test [15] and in [16] were -0.0131 and -0.0292, respectively.
As to `O=C(c1cc(Cc2n[nH]c(=O)c3ccccc23)ccc1F)N1CCN(C(=O)C2CC2)CC1` [Olaparib] + CN(CC[C@H](CSC1=CC=CC=C1)NC2=C(C=C(C=C2)S(=O)(=O)NC(=O)C3=CC=C(C=C3)N4CCC(CC4)[C@H](C5=CC=CC=C5C6=CC=C(C=C6)Cl)O)S(=O)(=O)C(F)(F)F)CCO [AZD4320] (first compound max 10 µM, 7x7, partner max 1 µM), the Bliss excess in [1] is -0.0021; in [2] it was -0.0347; in test [3] it was -0.0184; in test [4], -0.0379; in [5], -0.0141; in test [6], 0.0123. Also, the Bliss excess in [7] was 0.0017; in test [8] it was -0.0225; in test [9], -0.043; with NB14 (Neuroblastoma), 0.0027; in the test on NCI-H2461 (Mesothelioma), -0.0534; in the test with NCI-H28 (Mesothelioma) it was -0.0353. In addition, the Bliss excess is -0.0165 in [10]; -0.0405 in test [11]; -0.0252 in test [12]; 0.0694 in test [13]; -0.0505 in the test with SH-4 (Melanoma); -0.0672 in test [14]. For the same molecule, the values for the Bliss excess in test [15] and in test [16] were 0.0091 and -0.0404, respectively.
Regarding `C[C@@H](Oc1cc(-c2cnn(C3CCNCC3)c2)cnc1N)c1c(Cl)ccc(F)c1Cl` [Crizotinib] + Cn1cnc2c(F)c(Nc3ccc(Br)cc3Cl)c(C(=O)NOCCO)cc21 [Selumetinib] (first compound max 10 µM, 7x7, partner max 10 µM), the Bliss excess in test [1] was -0.0135; in test [2], -0.046; in test [3] it was -0.0542; in [4], -0.0366; in test [5], -0.0399; in [6], -0.0779. In addition, the Bliss excess in [7] was 0.0381; in test [8], -0.0546; in test [9], -0.0996; in the test on NB14 (Neuroblastoma) it was 0.0218; in the test with NCI-H2461 (Mesothelioma), -0.0376; in the test on NCI-H28 (Mesothelioma), -0.0004. Further, the Bliss excess in [10] was -0.0354; in [11], -0.0206; in test [12], 0.122; in [13], -0.0622; in the test with SH-4 (Melanoma) it was -0.0768; in [14], -0.0479. Further, the Bliss excess in test [15] is -0.0205; in [16], -0.0239.
Consider `C[C@@H]1COCCN1c1cc(C2([S@](C)(=N)=O)CC2)nc(-c2ccnc3[nH]ccc23)n1` [AZD6738] + Nc1ccn([C@@H]2O[C@H](CO)[C@@H](O)C2(F)F)c(=O)n1 [Gemcitabine] (first compound max 10 µM, 7x7, partner max 0.3 µM), for which the Bliss excess is 0.0372 in [1]; -0.0254 in test [2]; 0.0613 in test [3]; 0.0343 in [4]; 0.0754 in test [5]; 0.061 in [6]. Besides, the Bliss excess was 0.0444 in test [7]; -0.0243 in [8]; 0.0233 in test [9]; 0.04 with NB14 (Neuroblastoma); -0.0436 in the test on NCI-H2461 (Mesothelioma); 0.0086 with NCI-H28 (Mesothelioma). Moreover, the Bliss excess in [10] was 0.115; in [11] it was 0.0539; in [12], -0.0088; in test [13], -0.034; in the test on SH-4 (Melanoma) it was -0.0029; in test [14], 0.0331. The Bliss excess was found to be 0.118 in test [15] and 0.0575 in [16].
